Measured values as given in patent US8575091B1, “Amylin analogues and pharmaceutical compositions thereof” (Novo Nordisk A/S, priority 2012, dated 2013).
Numbered stars: 1 amine (or outer) side, 2 acyl side, 3 side chain; on linkers, the order of the positions; unused ones are H or OH. Bridge positions count the residues as written; N and C are the ends. Side chains are listed from the residue outwards. Peptide text beside a SMILES is read from it. * marks the point of attachment. C20 diacid = O=C(O)CCCCCCCCCCCCCCCCCCC(=O)*; γGlu = O=C(O)[C@H](CCC(=O)[*:2])N[*:1]; AEEA = NCCOCCOCC(=O)O

Legend:
[1] = Assay (III) ThT fibrillation assay for physical stability; format: physicochemical
Description: Assay (III)—ThT Fibrillation Assays for the Assessment of Physical Stability of Protein Formulations Low physical stability of a polypeptide may lead to amyloid fibril formation, which is observed as well-ordered, thread-like macromolecular structures in the sample eventually resulting in gel formation. This has traditionally been measured by visual inspection of the sample. However, that kind of measurement is very subjective and depending on the observer. Therefore, the application of a small molecule indicator probe is much more advantageous. Thioflavin T (ThT) is such a probe and has a distinct fluorescence signature when binding to fibrils [Naiki et al. (1989) Anal. […] LeVine (1999) Methods. Enzymol. […], 274-284]. The time course for fibril formation can be described by a sigmoidal curve with the following expression [Nielsen et al. (2001) Biochemistry 40, 6036-6046]: […] Here, F is the ThT fluorescence at the time t. The constant t0 is the time needed to reach 50% of maximum fluorescence. […] Incubation and Fluorescence Measurement Incubation at given temperature, shaking and measurement of the ThT fluorescence emission were done in a Fluoroskan Ascent FL fluorescence platereader or Varioskan platereader (Thermo Labsystems). […] Fluorescence measurement was done using excitation through a 444 nm filter and measurement of emission through a 485 nm filter. […] The plate was measured every 20 minutes for a desired period of time. […] However, since full sigmodial curves in this case are not always achieved during the measurement time, the degree of fibrillation is expressed as ThT fluorescence tabulated as the mean of the samples and shown with the standard deviation at various time points. Measurement of Initial and Final Concentrations The polypeptide concentration in each of the tested formulations were measured both before application in the ThT fibrillation assay (“Initial”) and after completion of the ThT fibrillation (“After ThT assay”). Concentrations were determined by reverse HPLC methods using a pramlintide standard as a reference. […]

[2] = target: T1, human amylin receptor (amylin 3(a) receptor: human calcitonin receptor + RAMP-3) (Homo sapiens, UniProt O60896+P30988); assay: Assay (II)a functional assay, human amylin receptor (CRE luciferase, BHK cells); format: cell-based
T1 construct: expressed in transfected cells
T1 sequence (P30988 25-474): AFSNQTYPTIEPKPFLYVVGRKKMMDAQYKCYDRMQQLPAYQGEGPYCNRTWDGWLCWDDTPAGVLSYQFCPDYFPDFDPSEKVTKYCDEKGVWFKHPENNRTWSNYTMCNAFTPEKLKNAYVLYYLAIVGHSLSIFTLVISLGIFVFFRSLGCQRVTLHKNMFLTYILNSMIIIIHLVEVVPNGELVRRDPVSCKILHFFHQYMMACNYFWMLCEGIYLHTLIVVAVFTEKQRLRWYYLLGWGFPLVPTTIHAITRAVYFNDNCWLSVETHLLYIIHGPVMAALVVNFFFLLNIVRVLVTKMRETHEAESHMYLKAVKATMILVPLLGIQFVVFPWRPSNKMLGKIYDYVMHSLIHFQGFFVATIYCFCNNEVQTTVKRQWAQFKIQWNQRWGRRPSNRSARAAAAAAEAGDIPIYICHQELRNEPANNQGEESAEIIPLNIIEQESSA
T1 sequence (O60896 24-148 partner): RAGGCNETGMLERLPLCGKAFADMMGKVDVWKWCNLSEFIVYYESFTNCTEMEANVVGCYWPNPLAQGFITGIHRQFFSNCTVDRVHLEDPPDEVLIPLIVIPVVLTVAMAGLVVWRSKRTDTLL

Wistar rats = assay: Assay (XII) single subcutaneous administration, plasma calcium in rats; format: in vivo, rat; settings: 30 nmol/kg
Method in brief: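 Male Wistar rats (~250 g), groups of five, received a single subcutaneous dose at time 0. Blood drawn at −15 min, 1, 2, 4, 7, 12 and 24 h; total calcium measured in heparin plasma, reported as mean±SEM.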

[3] = target: T2, human calcitonin receptor (Homo sapiens, UniProt P30988); assay: Assay (VII) binding to the human calcitonin receptor (SPA, 125I-Calcitonin); settings: read-out: hCTR bind IC50;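 also: cell membranes coupled to SPA beads, competitive displacement read by scintillation counting, IC50 derived from a one-site competition fit as a measure of receptor affinity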
T2 construct: expressed in transfected cells
T2 sequence (P30988 25-474): T1 sequence (P30988 25-474)

human amylin receptor = target: T3, human amylin receptor (Homo sapiens, UniProt O60896+P30988); assay: Assay (V) binding to the human amylin receptor (SPA, 125I-rat amylin); settings: human amylin receptor membranes, SPA; read-out: hAmylin-R bind IC50
T3 construct: expressed in transfected cells
T3 sequence (P30988 25-474): T1 sequence (P30988 25-474)
T3 sequence (O60896 24-148 partner): T1 sequence (O60896 24-148 partner)
Method in brief: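 SPA competition binding on membranes from Amylin 3(a)/CRE-luc cells, 35 ng/μL membranes with 0.05 mg/well beads. Buffer 50 mM Hepes pH 7.4, 1 mM CaCl2, 5 mM MgCl2, 0.1% OA, 0.02% Tween20. IC50 from one-site competition fit as affinity measure.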

Sprague-Dawley rats = assay: Assay (XI) single subcutaneous administration, food intake monitored for 48 hours in rats; format: in vivo, rat; settings: single subcutaneous 30 nmol/kg
Method: Assay (XI)—Effect from Single Subcutaneous Administration of Analogue on […] in Rats
Male Sprague-Dawley rats (Taconic Europe, ˜250 g at test date) were acclimatized to reversed day light cycle (lights on from 10 PM to 10 AM) and single housing in online food intake monitoring system (Ellegaard MBRose, Denmark) prior to study start. Rats were divided in groups of five and subcutaneously dosed with test compound (30 nmol/kg) and food intake was monitored for 48 hours hereafter. Data are illustrated in graphs as mean±SEM.

[4] = target: T2, human calcitonin receptor; assay: Assay (II)a functional assay, human calcitonin receptor (CRE luciferase, BHK cells);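 also: luminescence from a CRE-driven luciferase reporter, read by single photon counting after cells were exposed to test samples for 3 h at 37 °C under 5% CO2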; format: cell-based; settings: read-out: hCTR funct. EC50
[5] = Table 6, human functional selectivity (hCTR EC50 / hAmylin-R EC50)

Structure (SMILES) | ThT pH 4.0 recovery (%) [1] | Ratio hCT/hAmylin funct. [2, 5] | Ratio hCT/hAmylin funct. ([2]; Table 6a, human functional selectivity (hCTR EC50 / hAmylin-R EC50), at least 5) | Ratio hCT/hAmylin funct. ([2]; Table 6i, hCTR funct. EC50 / hAmylin-R funct. EC50) | Ratio hCT/hAmylin funct. ([2]; Table 6j, hCTR funct. EC50 / hAmylin-R funct. EC50) | Ratio hCT/hAmylin funct. ([2]; Table 6k, hCTR funct. EC50 / hAmylin-R funct. EC50) | EC50 ([2]; functional assay, human amylin receptor, read-out: hAmylin-R funct. EC50) | Plasma calcium red (%) 0-12 h (Wistar rats; single s.c., maximal reduction 0-12 h, compared to vehicle) | suppression of plasma calcium level relative to vehicle (Wistar rats; single subcutaneous, over 24 hours) | IC50 [3] | IC50 (human amylin receptor) | food intake monitored over 48 hours versus vehicle (Sprague-Dawley rats) | EC50 [4]
CC[C@H](C)[C@H](NC(=O)[C@H](C)NC(=O)CNC(=O)[C@H](Cc1ccccc1)NC(=O)[C@H](CC(N)=O)NC(=O)[C@@H]1CCCN1C(=O)[C@H](CO)NC(=O)[C@H](CO)NC(=O)[C@H](Cc1c[nH]cn1)NC(=O)[C@H](CCCNC(=N)N)NC(=O)[C@H](CC(C)C)NC(=O)[C@H](Cc1ccccc1)NC(=O)[C@H](CCCCN)NC(=O)[C@H](C)NC(=O)[C@H](CC(C)C)NC(=O)[C@H](CCCNC(=N)N)NC(=O)[C@H](CCC(N)=O)NC(=O)[C@@H](NC(=O)[C@H](C)NC(=O)[C@@H]1CSSC[C@H](NC(=O)[C@@H](N)CCCCNC(=O)COCCOCCNC(=O)CC[C@H](NC(=O)CCCCCCCCCCCCCCCCCCC(=O)O)C(=O)O)C(=O)N[C@@H](CC(N)=O)C(=O)N[C@@H]([C@@H](C)O)C(=O)N[C@@H](C)C(=O)N[C@@H]([C@@H](C)O)C(=O)N1)[C@@H](C)O)C(=O)N1CCC[C@H]1C(=O)N[C@@H](CO)C(=O)N[C@@H](CO)C(=O)N[C@H](C(=O)N1CCC[C@H]1C(=O)N[C@H](C(=O)NCC(=O)N[C@@H](CO)C(=O)N[C@@H](CC(N)=O)C(=O)N[C@H](C(=O)N[C@@H](Cc1ccc(O)cc1)C(N)=O)[C@@H](C)O)C(C)C)[C@@H](C)O [Example 74] (H-K([AEEA-γGlu-C20 diacid])CNTATCATQRLAKFLRHSSPNFGAIPSSTPVGSNTY-NH2; disulfide 2-7 (inferred); N-terminus and C-terminus assumed) | 87% |  |  |  |  |  |  |  |  |  |  |  | 
CC[C@H](C)[C@H](NC(=O)[C@H](C)NC(=O)CNC(=O)[C@H](Cc1ccccc1)NC(=O)[C@H](CC(N)=O)NC(=O)[C@@H]1CCCN1C(=O)[C@H](CO)NC(=O)[C@H](CO)NC(=O)[C@H](Cc1c[nH]cn1)NC(=O)[C@H](CCCNC(=N)N)NC(=O)[C@H](CC(C)C)NC(=O)[C@H](Cc1ccccc1)NC(=O)[C@H](C)NC(=O)[C@H](C)NC(=O)[C@H](CC(C)C)NC(=O)[C@H](CCCNC(=N)N)NC(=O)[C@H](CCC(N)=O)NC(=O)[C@@H](NC(=O)[C@H](C)NC(=O)[C@@H]1CSSC[C@H](NC(=O)[C@H](CCCNC(=N)N)NC(=O)CNC(=O)CC[C@H](NC(=O)CCCCCCCCCCCCCCCCCCC(=O)O)C(=O)O)C(=O)N[C@@H](CC(N)=O)C(=O)N[C@@H]([C@@H](C)O)C(=O)N[C@@H](C)C(=O)N[C@@H]([C@@H](C)O)C(=O)N1)[C@@H](C)O)C(=O)N1CCC[C@H]1C(=O)N[C@@H](CO)C(=O)N[C@@H](CO)C(=O)N[C@H](C(=O)N[C@@H](CC(N)=O)C(=O)N[C@H](C(=O)NCC(=O)N1CCC[C@H]1C(=O)N[C@@H](CC(N)=O)C(=O)N[C@H](C(=O)N[C@@H](Cc1ccc(O)cc1)C(N)=O)[C@@H](C)O)C(C)C)[C@@H](C)O [Example 103] ({C20 diacid-γGlu}-GRCNTATCATQRLAAFLRHSSPNFGAIPSSTNVGPNTY-NH2; disulfide 3-8 (inferred); C-terminus assumed) | 82% | 2.1 |  |  |  |  |  |  |  |  |  |  | 
CC[C@H](C)[C@H](NC(=O)[C@H](C)NC(=O)CNC(=O)[C@H](Cc1ccccc1)NC(=O)[C@H](CC(N)=O)NC(=O)[C@@H]1CCCN1C(=O)[C@H](CO)NC(=O)[C@H](CO)NC(=O)[C@H](Cc1c[nH]cn1)NC(=O)[C@H](CCCNC(=N)N)NC(=O)[C@H](CC(C)C)NC(=O)[C@H](Cc1ccccc1)NC(=O)[C@H](CCC(=O)O)NC(=O)[C@H](C)NC(=O)[C@H](CC(C)C)NC(=O)[C@H](CCCNC(=N)N)NC(=O)[C@H](CCC(N)=O)NC(=O)[C@@H](NC(=O)[C@H](C)NC(=O)[C@@H]1CSSC[C@H](NC(=O)[C@@H](N)CCCCNC(=O)CC[C@H](NC(=O)CCCCCCCCCCCCCCCCCCC(=O)O)C(=O)O)C(=O)N[C@@H](CC(N)=O)C(=O)N[C@@H]([C@@H](C)O)C(=O)N[C@@H](C)C(=O)N[C@@H]([C@@H](C)O)C(=O)N1)[C@@H](C)O)C(=O)N1CCC[C@H]1C(=O)N[C@@H](CO)C(=O)N[C@@H](CO)C(=O)N[C@H](C(=O)N[C@@H](CC(N)=O)C(=O)N[C@H](C(=O)NCC(=O)N1CCC[C@H]1C(=O)N[C@@H](CCCNC(=N)N)C(=O)N[C@H](C(=O)N[C@@H](Cc1ccc(O)cc1)C(N)=O)[C@@H](C)O)C(C)C)[C@@H](C)O [Example 117] (H-K([γGlu-C20 diacid])CNTATCATQRLAEFLRHSSPNFGAIPSSTNVGPRTY-NH2; disulfide 2-7) |  | 17.0 | 17.0 | 17.0 | 17.0 | 17.0 | 0.376 nM | 9% | None of the example compounds at 30 nmol/kg trigger a notable suppression of the calcium level | 6.3 nM | 0.163 nM | reduces food intake in rats | 6.38 nM
